In patent US10258639B2, “Methods for treating insulin resistance and for sensitizing patients to GLP1 agonist therapy” (Research Development Foundation, priority 2014, dated 2019):

Key:
PKIB in INS1 cells = assay: PKIB expression (mRNA/protein) in INS1 cells; assay type: cell-based, rat; settings: DMOG 1 mM
Description: Moreover, RNAi-mediated depletion of HIF-1α also disrupted PKIB induction, whereas HIF-1α over-expression potentiated it (FIG. 5f, FIGS. 10e and 10f).
(§1) INS-1 insulinoma cells were cultured in RPMI (corning cellgro) containing 10% fetal bovine serum (Gemini Bio Products), 100 μg/mL penicillin-streptomycin and 1 mM sodium pyruvate (corning cellgro). MIN6 cells were grown in DMEM (corning cellgro) with 10% FBS, 100 μg/mL penicillin-streptomycin and 70 uM beta-mercaptoethanol. For chronic glucose experiments, cells were maintained under low (2.8 mM) or high (20 mM) glucose for 3 days. Exendin-4 (10 nM), Forskolin (10 μM), KCl (40 mM), DMOG (1 mM) and rapamycin (50 nM) were added to cells as indicated. Cellular cAMP levels were measured using an ELISA kit (Cayman Chemical Company) according to manufacturer's instructions.
Total RNAs from cells or primary islets were extracted using Trizol and cDNA was generated using the Transcriptor First Strand cDNA Synthesis kit (Roche Applied Science). cDNAs were quantified on a lightcycler 480 instrument (Roche Applied Science). […] Libraries were quantitated by Qubit (Invitrogen), and run on a MiSeq instrument with paired-end 75 bp reads using v3 chemistry (Illumina) Data were analyzed by tophat2 and cuffdiff against the mouse mm10 genome build. […]

[1] = test system: CREB (Ser133) / CRTC2 in INS1 insulinoma cells; assay: Immunoblot of CREB phosphorylation and CRTC2 dephosphorylation in INS1 insulinoma cells; assay type: cell-based, rat; settings: within 30 minutes, FSK 10 μM, KCl 40 mM
Description: as §1
Total protein from cultured cells or primary islets was extracted in a Tris-HCl buffer containing 0.5% NP40, protease and phosphatase inhibitors. Proteins were quantified using Bradford reagent and separated using SDS-PAGE. For cellular fractionation, cells were resuspended in hypotonic lysis buffer (40 mM TrisHCl PH 7.4, 10 mM NaCl, 1 mM EDTA with DTT and protease inhibitors). Cells were lysed using a dounce homogenizer and centrifuged. Cytosolic supernatants were collected. Nuclear pellets were washed 3 times and resuspended in nuclear extraction buffer (40 mM TrisHCl PH 7.4, 420 mM NaCl, 10% Glycerol, 1 mM EDTA). Samples were sonicated and centrifuged. Nuclear supernatants were collected. […]

[2] = Matthews et al. 2008; cited from earlier work
human GLP1 receptor = human GLP1 receptor (Homo sapiens, UniProt P43220); settings: greater affinity vs native GLP1; cited from earlier work
[3] = mildly hyperglycaemic patients with Type 2 diabetes on metformin (Ratner et al. 2010); cited from earlier work

human GLP1 receptor, sequence (P43220 24-463): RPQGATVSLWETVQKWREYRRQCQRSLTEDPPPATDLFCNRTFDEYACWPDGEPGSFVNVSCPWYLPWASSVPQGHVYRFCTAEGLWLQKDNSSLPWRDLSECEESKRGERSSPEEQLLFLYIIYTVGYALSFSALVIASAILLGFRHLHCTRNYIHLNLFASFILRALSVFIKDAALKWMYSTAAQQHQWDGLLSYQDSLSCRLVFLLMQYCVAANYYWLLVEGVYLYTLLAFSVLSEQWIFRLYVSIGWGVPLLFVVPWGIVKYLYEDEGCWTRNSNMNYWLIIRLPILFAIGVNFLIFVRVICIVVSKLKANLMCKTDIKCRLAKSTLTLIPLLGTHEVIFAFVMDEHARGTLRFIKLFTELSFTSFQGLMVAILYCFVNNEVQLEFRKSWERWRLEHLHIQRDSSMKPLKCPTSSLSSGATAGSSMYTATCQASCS

Compound: COC(=O)CNC(=O)C(=O)OC [DMOG]
- PKIB expression (PKIB in INS1 cells): upregulated PKIB expression

Compound: [Cl-].[K+] [KCl]
- phosphorylation of CREB at Ser133 [1]: stimulated CREB phosphorylation to a lesser extent

Compound: Albiglutide: recombinant human serum albumin (HSA)-GLP1 hybrid protein; dipeptidyl peptidase-4-resistant glucagon-like peptide-1 dimer fused to human albumin
- half-life after administration [2]: four to seven

Compound: Lixisenatide: exendin-4-based GLP1 receptor agonist
- affinity for the human GLP1 receptor compared with native GLP1 (human GLP1 receptor): approximately 4 fold
- glycaemic control [3]: significantly improve glycaemic control
